Where two headings read alike, the source gives them in different places.
Experiments:
[1] = tested on: fibrin-induced microglia activation; assay: Image-based assay of fibrin-induced microglia activation (HTS and dose response); format: cell-based, rat; conditions: for inhibition at 10 µM: Rattus norvegicus, Microglia, fibrin-stimulated, cell size >800 μm^2 as marker of activation, read-out: Fibrin % inhibition
[2] = tested on: fibrin- and LPS-induced microglia activation; assay: cells; format: cell-based, rat; conditions: for Hit: HTS hit classification
[3] = tested on: LPS-induced microglia activation; assay: Image-based assay of LPS-induced microglia activation (HTS and dose response); format: cell-based, rat; conditions: for inhibition at 10 µM: Rattus norvegicus, Microglia, LPS-stimulated, cell size >800 μm^2 as marker of activation, read-out: LPS % inhibition
primary rat microglia [4] = assay: Cell toxicity (dead cells, size <150 μm2) in LPS assay; conditions: for IC50: read-out: Cell Toxicity IC50 (uM) [LPS assay]
primary rat microglia [5] = assay: Cell toxicity (dead cells, size <150 μm2) in coated fibrin (cFib) assay; conditions: for IC50: read-out: Cell Toxicity IC50 (uM) [cFib assay];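 on Fibrin % cell toxicity: share of dead cells sized under 150 µm2 at 10 µM in fibrin-stimulated microglia HTS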
[6] = HTS of 1907 compounds, quadrant by fibrin and LPS inhibition
[7] = primary microglia HTS, 10 μM, LPS assay, cell size <150 μm^2 as marker of toxicity
[8] = primary microglia HTS, 10 μM, fibrin assay, cell size <150 μm^2 as marker of toxicity
[9] = primary HTS, 10 μM, fibrin-stimulated primary microglia
[10] = primary HTS, 10 μM, LPS-stimulated primary microglia
[11] = primary HTS, 10 μM, LPS assay, dead cells size <150 μm2
[12] = primary HTS, 10 μM, fibrin assay, dead cells size <150 μm2
[13] = Table 1, dose response 0.001-20 μM, triplicates, primary rat microglia, 48 h, read-out: Fibrin IC50
[14] = dose response, fibrin-induced microglia activation, read-out: Fibrin IC50
[15] = fibrin-induced microglia activation, dose response, read-out: Fibrin IC50 (uM) (Suppl. Table 7)
[16] = primary microglia HTS, fibrin stimulation, increased cell size (>800 μm^2) as marker of activation
[17] = hit classification in microglia HTS
[18] = quadrant by fibrin and LPS inhibition in HTS of 1907 compounds
[19] = LPS-induced microglia activation, dose response, read-out: LPS IC50 (uM) (Suppl. Table 7)
[20] = Table 1, dose response 0.001-20 μM, triplicates, primary rat microglia, 48 h, read-out: LPS IC50
[21] = dose response, LPS-induced microglia activation, read-out: LPS IC50
[22] = primary microglia HTS, LPS stimulation, increased cell size (>800 μm^2) as marker of activation
[23] = primary microglia HTS, LPS stimulation, decreased size (<150 μm^2) as marker of toxicity
[24] = primary microglia HTS, fibrin stimulation, decreased size (<150 μm^2) as marker of toxicity

| Compound | Quadrant (FIG. 5b) [2, 6] | Fibrin % inhibition [1, 9] | Quadrant (FIG. 5b) ([2]; primary HTS, 10 μM) | LPS % inhibition [3, 10] | LPS % cell toxicity (primary rat microglia [4]; [11]) | Fibrin % cell toxicity (primary rat microglia [5]; [12]) | Fibrin % inhibition [1, 16] | Quadrant (FIG. 5b) [2, 18] | LPS % inhibition [3, 22] | LPS % cell toxicity (primary rat microglia [4]; [23]) | Fibrin % cell toxicity (primary rat microglia [5]; [24]) | other results |
| --- | --- | --- | --- | --- | --- | --- | --- | --- | --- | --- | --- | --- |
| Cc1cc(CC(=O)O)n(C)c1C(=O)c1ccc(Cl)cc1 [Zomepirac] | Q4 | – | – | – | – | – | – | – | – | – | – | inhibition at 10 µM ([1]; primary microglia HTS, 10 μM): -4%; inhibition at 10 µM ([3]; primary microglia HTS, 10 μM): 10%; LPS % cell toxicity (primary rat microglia [4]; [7]): 0%; Fibrin % cell toxicity (primary rat microglia [5]; [8]): 1% |
| NS(=O)(=O)Cc1noc2ccccc12 [Zonisamide] | Q4 | – | – | – | – | – | – | – | – | – | – | inhibition at 10 µM ([1]; primary microglia HTS, 10 μM): -37%; inhibition at 10 µM ([3]; primary microglia HTS, 10 μM): -12%; LPS % cell toxicity (primary rat microglia [4]; [7]): 0%; Fibrin % cell toxicity (primary rat microglia [5]; [8]): 0% |
| CN1CCN(C(=O)OC2c3nccnc3C(=O)N2c2ccc(Cl)cn2)CC1 (stereo not shown) [Zopiclone] | Q4 | – | – | – | – | – | – | – | – | – | – | inhibition at 10 µM ([1]; primary microglia HTS, 10 μM): 11%; inhibition at 10 µM ([3]; primary microglia HTS, 10 μM): 5%; LPS % cell toxicity (primary rat microglia [4]; [7]): 0%; Fibrin % cell toxicity (primary rat microglia [5]; [8]): 1% |
| Candicidin | – | −41% | Q4 | 31% | 0% | 1% | – | – | – | – | – | – |
| Capreomycin Sulfate | – | −32% | Q4 | 3% | 0% | 1% | – | – | – | – | – | – |
| Chiniofon | – | −52% | Q4 | −1% | 1% | 1% | – | – | – | – | – | – |
| Chlorophyllide Cu Complex Na Salt | – | −36% | Q4 | 9% | 0% | 0% | – | – | – | – | – | – |
| Colistimethate sodium [reference compound] | Q2 | – | – | – | – | – | 72% | Q2 | 112% | 4% | 1% | IC50 [1, 13]: > 20 µM; IC50 [1, 14]: > 20 µM; IC50 [1, 15]: > 20 µM; Hit [2]: HIT (Hits were defined as molecules that exhibited greater than 50% inhibition of either fibrin or LPS activation); Quadrant (FIG. 5b) ([2]; Table 1, screen at 10 μM): Q2; Cherry-picked Hit (Suppl. Table 7) [2, 17]: HIT (Hits were defined as molecules that exhibited greater than 50% inhibition of either fibrin or LPS activation); IC50 [3, 19]: > 20 µM; IC50 [3, 20]: > 20 µM; IC50 [3, 21]: > 20 µM; IC50 (primary rat microglia [4]; LPS assay): > 20 µM; IC50 (primary rat microglia [5]; cFib assay): > 20 µM |
| Colistin Sulfate | – | – | – | – | – | – | 19% | Q1 | 58% | 1% | 1% | – |
| Gentamicin sulfate [reference compound] | Q2 | – | – | – | – | – | 105% | Q2 | 101% | 4% | 1% | Fibrin Selectivity [1]: 5; Fibrin Selectivity (LOG10) [1]: 0.71; IC50 [1, 13]: 4 µM; IC50 ([1]; Table 3, read-out: Fibrin IC50 (uM) (Suppl. Table 7)): 4 µM; IC50 [1, 14]: 4 µM; IC50 [1, 15]: 4 µM; Hit [2]: HIT (Hits were defined as molecules that exhibited greater than 50% inhibition of either fibrin or LPS activation); Quadrant (FIG. 5b) ([2]; Table 1, screen at 10 μM): Q2; Cherry-picked Hit (Suppl. Table 7) ([2]; Table 3): HIT (Hits were defined as molecules that exhibited greater than 50% inhibition of either fibrin or LPS activation); Quadrant (FIG. 5b) ([2]; Table 3, screen at 10 μM): Q2; Cherry-picked Hit (Suppl. Table 7) [2, 17]: HIT (Hits were defined as molecules that exhibited greater than 50% inhibition of either fibrin or LPS activation); IC50 [3, 19]: > 20 µM; IC50 [3, 20]: > 20 µM; IC50 ([3]; Table 3, read-out: LPS IC50 (uM) (Suppl. Table 7)): > 20 µM; IC50 [3, 21]: > 20 µM; IC50 (primary rat microglia [4]; LPS assay): > 20 µM; IC50 (primary rat microglia [4]; Table 3): > 20 µM; IC50 (primary rat microglia [5]; Table 3): > 20 µM; IC50 (primary rat microglia [5]; cFib assay): > 20 µM |
| Gramicidin | – | – | – | – | – | – | 114% | Q2 | 118% | 64% | 43% | – |
| Mepartricin | – | – | – | – | – | – | 6% | Q4 | −1% | 0% | 1% | – |
| Merbromin | – | – | – | – | – | – | −6% | Q4 | 36% | 0% | 0% | – |
